Patent publication US20210267865A1, “COSMETIC COMPOSITION FOR INCREASING SKIN EXFOLIATION” (LG HOUSEHOLD & HEALTH CARE LTD., priority 2018, published 2021)

Assays:
pig skin = experiment: Evaluation of pig skin exfoliation (number of exfoliated cells from biopsied pig skin); conditions: for activity versus gluconolactone (PHA) or lactic acid (AHA) at pH 4: neutral or weakly acidic pH of 5-7
Procedure: The exfoliation evaluation method described in Journal of the European Academy of Dermatology and Venereology, 2014, 28, 415-423 was used. Specifically, pig skin was biopsied and a sample to be tested was added. Then, the number of exfoliated cells was measured with a cell counter and was plotted with water as a negative control group (0%) and 10% gluconolactone at pH 4 as a positive control group (100%).

[1] = tested on: stratum corneum of inside forearm and upper arm; experiment: Evaluation of exfoliation turnover enhancement by DHA staining (human skin test); format: in vivo; conditions: for turnover time (TT100): polyol humectant content 10% or 50%, non-application group 20 days
Procedure: DHA staining for evaluating the speed of exfoliation turnover was conducted for 10 healthy males aged between 20 and 40 years according to the method described in Dermatology 1993, 186, 133-137. Prior to sample application, the color of the inside forearm and upper arm of the test subjects was measured with Chroma Meter. Then, a 1.5×1.5 cm gauze soaked with about 0.4 mL of 10% dihydroxyacetone (DHA) was attached to the inside forearm and upper arm for 8 hours. 48 hours later, the color of the part that was pigmented brown by DHA was compared with that before the sample application. Subsequently, while applying the sample twice a day, the time required to return to the original skin color was measured by measuring the skin color every day with Chroma Meter. TT (turnover time) 100% means the time required for the existing stratum corneum to be completely (100%) replaced with a new stratum corneum. In this experiment, the time required for the skin pigmented by DHA corneum to completely return to the original color was compared by regression analysis. The result was compared with that of the negative control group (20 days).

[2] = with glycerin, dipropylene glycol or 1,3-butylene glycol, polyol humectant content exceeding 10 wt %

In the case of `C[N+](C)(C)CC(O)CC(=O)[O-]` (centres unmarked) [Carnitine, carnitine], the exfoliation effect (pig skin; 5% carnitine, pH 7, concentration of glycerin higher than 10 wt % (FIG. 2)) is reported as 0%, the exfoliation activity (pig skin; 5% carnitine, pH 7, with 10% or 12% glycerin, dipropylene glycol or 1,3-butylene glycol (FIG. 5)) is reported as “decreased to the levels where human skin test is meaningless” and the Exfoliation ability % (pig skin; carnitine 0.5 wt %, glycerin 0 wt %) is reported as 61%. For the same compound, the Exfoliation ability % (pig skin; carnitine 0.5 wt %, glycerin 0.5 wt %) was 50%, the Exfoliation ability % (pig skin; carnitine 0.5 wt %, glycerin 1 wt %) was 18% and the Exfoliation ability % (pig skin; carnitine 0.5 wt %, glycerin 5 wt %) was 11%. For the same compound, the Exfoliation ability % (pig skin; carnitine 0.5 wt %, glycerin 10 wt %) was 0%, the Exfoliation ability % (pig skin; carnitine 5 wt %, glycerin 0 wt %) was 100% and the Exfoliation ability % (pig skin; carnitine 5 wt %, glycerin 0.1 wt %) was 89%. It also gave an Exfoliation ability % (pig skin; carnitine 5 wt %, glycerin 0.5 wt %) of 91%, an Exfoliation ability % (pig skin; carnitine 5 wt %, glycerin 1 wt %) of 55% and an Exfoliation ability % (pig skin; carnitine 5 wt %, glycerin 2 wt %) of 53%. It also gave an Exfoliation ability % (pig skin; carnitine 5 wt %, glycerin 3 wt %) of 30%, an Exfoliation ability % (pig skin; carnitine 5 wt %, glycerin 4 wt %) of 19% and an Exfoliation ability % (pig skin; carnitine 5 wt %, glycerin 5 wt %) of 12%. For the same compound, the Exfoliation ability % (pig skin; carnitine 5 wt %, glycerin 7 wt %) was 5%, the Exfoliation ability % (pig skin; carnitine 5 wt %, glycerin 10 wt %) was 4% and the Exfoliation ability % (pig skin; carnitine 5 wt %, glycerin 12 wt %) was 0%. The Exfoliation ability % (pig skin; carnitine 5 wt %, glycerin 15 wt %) was 0%, the “activity versus gluconolactone (PHA) or lactic acid (AHA) at pH 4” value (pig skin) was “comparable to or better than” and the exfoliation effect (pig skin; [2]) was 0%. The “turnover time (TT100)” value [1] was “no significant difference”.

For `N[C@@H](CO)C(=O)O` [Serine, serine], the exfoliating effect (pig skin; 5% serine with humectant mixtures (glycerin 1:DPG 1:1,3-BG 1) (FIG. 6)) was “decreased similarly”, the exfoliation effect (pig skin; 5% serine, pH 6, concentration of glycerin 10% or higher (FIG. 1)) was 0% and the exfoliation activity (pig skin; 5% serine, pH 6, dipropylene glycol or 1,3-butylene glycol exceeding 10% (FIGS. 3 and 4)) was “decreased below that of water (negative control group)”. For the same compound, the “activity versus gluconolactone (PHA) or lactic acid (AHA) at pH 4” value (pig skin) was “comparable to or better than”, the Exfoliation ability % (pig skin; serine 0.5 wt %, glycerin 0 wt %) was 56% and the Exfoliation ability % (pig skin; serine 0.5 wt %, glycerin 0.5 wt %) was 53%. The Exfoliation ability % (pig skin; serine 0.5 wt %, glycerin 1 wt %) was 34%, the Exfoliation ability % (pig skin; serine 0.5 wt %, glycerin 5 wt %) was 19% and the Exfoliation ability % (pig skin; serine 0.5 wt %, glycerin 10 wt %) was 13%. The Exfoliation ability % (pig skin; serine 5 wt %, glycerin 0 wt %) was 91%, the Exfoliation ability % (pig skin; serine 5 wt %, glycerin 0.1 wt %) was 85% and the Exfoliation ability % (pig skin; serine 5 wt %, glycerin 0.5 wt %) was 86%. It also gave an Exfoliation ability % (pig skin; serine 5 wt %, glycerin 1 wt %) of 59%, an Exfoliation ability % (pig skin; serine 5 wt %, glycerin 2 wt %) of 47% and an Exfoliation ability % (pig skin; serine 5 wt %, glycerin 3 wt %) of 23%. The Exfoliation ability % (pig skin; serine 5 wt %, glycerin 4 wt %) was 26%, the Exfoliation ability % (pig skin; serine 5 wt %, glycerin 5 wt %) was 21% and the Exfoliation ability % (pig skin; serine 5 wt %, glycerin 7 wt %) was 16%. For the same compound, the Exfoliation ability % (pig skin; serine 5 wt %, glycerin 10 wt %) was 16%, the Exfoliation ability % (pig skin; serine 5 wt %, glycerin 12 wt %) was −2% and the Exfoliation ability % (pig skin; serine 5 wt %, glycerin 15 wt %) was −5%. The exfoliation effect (pig skin; [2]) was 0%, the “decrease of TT100% versus non-application group” value ([1]; 5% serine, applied twice a day) was 6 days and the “TT100% (turnover time)” value ([1]; 5% serine, applied twice a day, non-application group 20 days (FIG. 13)) was 14 days. The “turnover time (TT100)” value [1] was “no significant difference”, the “visual change after application for 10 days” value ([1]; serine alone at concentrations of 0.5% and 5% (FIG. 12)) was “effective” and the “visual change after application for 10 days” value ([1]; serine with glycerin concentration 10% or 50% (FIG. 12)) was “no significant difference from the non-application group”. For the same compound, the “TT100% (turnover time)” value ([1]; serine with glycerin concentration 10% or 50% (FIG. 13)) was “no significant difference from the non-application group”.
